Measurements published in patent US9451771B2, “Compositions and methods to attract the brown marmorated stink bug (BMSB), Halyomorpha halys” (United States of America as Represented by the Secretary of …, priority 2012, dated 2016).

Tested on: brown marmorated stink bug (BMSB), Halyomorpha halys
Assay: Synergy trials for attraction of BMSB to #10 and MDT, black pyramid traps
Type: in vivo
Method: Synergy trials for attraction of BMSB to #10 and methyl (2E,4E,6Z)-decatrieonate (MDT): From 6 Apr. to 23 Oct. […] Va. (3 replicates), we tested the following four treatments for attraction of BMSB adults and nymphs, using a full-sized black pyramid trap adapted for BMSB (see above): (1) #10 lure (Table 4) replaced every 2 weeks; (2) #3 lure, MDT, (Sterling International, Spokane, Wash.; ˜119 mg loading; see text below), replaced every 4 weeks; (3) #14 lure, in which #10 and MDT lures hung together in trap, replaced as above for each lure; and (4) no lure (control).
The MDT lure obtained from Sterling International was extracted with pentane which yielded 420 mg of crude product. According to TLC analysis on silica using dichloromethane, the extracted material contained MTD (Rf 0.46) plus unknown chemical(s) with Rf 0.20. This material was flash chromatographed on silica with hexane:dichloromethane, 1:1, to obtain 119 mg of pure MDT. The identity of MDT was re-confirmed by comparison of the gas chromatographic retention time and mass-spectrum with those of a standard prepared according to Khrimian (Khrimian, A., Tetrahedron, 61: 3651-3657 (2005)).
Traps were checked and collected twice-weekly in Beltsville, and weekly in Arden, as described previously, and the treatments were re-randomized at each collection. Field trapping results were summed by approximately two-week intervals, and the totals for each replicate analyzed by ANOVA and additionally with Tukey's HSD multiple comparisons at α=0.05 if the overall 1-way ANOVA F-test was significant at α=0.05. In addition, a two-way ANOVA with interaction was tested to determine if the combined lure provoked a different level of attractiveness (a significant interaction) than would be expected from a combination of the attractiveness of each separate lure type. Such an interaction, with numbers exceeding the expected attraction for the combined lure, represents a true synergy of the two lures.

[1] = Arden, WV 2012, 15May-23 Oct, TOTAL
[2] = Arden, WV 2012, Aug2-13, 11-day total
[3] = Arden, WV 2012, Aug13-27, 14-day total
[4] = Arden, WV 2012, Aug27-Sep10, 14-day total
[5] = Arden, WV 2012, July2-17, 15-day total
[6] = Arden, WV 2012, July17-Aug2, 16-day total
[7] = Arden, WV 2012, June4-19, 15-day total
[8] = Arden, WV 2012, June19-July2, 13-day total
[9] = Arden, WV 2012, May 16-23, 7-day total
[10] = Arden, WV 2012, May23-Jun4, 14-day total
[11] = Arden, WV 2012, Oct9-23, 14-day total
[12] = Arden, WV 2012, Sep10-24, 14-day total
[13] = Arden, WV 2012, Sep24-Oct9, 17-day total
[14] = Arden, WV, 3 replicates, 20 May through 23 Oct. 2012
[15] = Arden, WV, 20 May through 23 Oct. 2012
[16] = Beltsville, MD 2012, 4-22 May, 18-day total, 4 traps/trtmt
[17] = Beltsville, MD 2012, 5-19 June, 14-day total, 4 traps/trtmt
[18] = Beltsville, MD 2012, 5-23Oct, 18-day total, 4 traps/trtmt
[19] = Beltsville, MD 2012, 6-20 April, 14-day total, 4 traps/trtmt
[20] = Beltsville, MD 2012, 6APR-23OCT, Total
[21] = Beltsville, MD 2012, 6APR-23OCT, Total, 4 traps/trtmt
[22] = Beltsville, MD 2012, 7-21 Sept, 14-day total, 4 traps/trtmt
[23] = Beltsville, MD 2012, 10-24 Aug, 14-day total, 4 traps/trtmt
[24] = Beltsville, MD 2012, 13-27 July
[25] = Beltsville, MD 2012, 13-27 July, 14-day total, 4 traps/trtmt
[26] = Beltsville, MD 2012, 19-29 June
[27] = Beltsville, MD 2012, 19-29 June, 10-day total, 4 traps/trtmt
[28] = Beltsville, MD 2012, 20 April-4 May, 14-day total, 4 traps/trtmt
[29] = Beltsville, MD 2012, 21Sep-5 Oct
[30] = Beltsville, MD 2012, 21Sep-5 Oct, 14-day total, 4 traps/trtmt
[31] = Beltsville, MD 2012, 24Aug-7Sept
[32] = Beltsville, MD 2012, 24Aug-7Sept, 14-day total, 4 traps/trtmt
[33] = Beltsville, MD 2012, 27 July-10 Aug
[34] = Beltsville, MD 2012, 27 July-10 Aug, 14-day total, 4 traps/trtmt
[35] = Beltsville, MD 2012, 29 June-13 July
[36] = Beltsville, MD 2012, 29 June-13 July, 14-day total, 4 traps/trtmt
[37] = Beltsville, MD, 4 replicates, 6 April through 23 Oct. 2012
[38] = Beltsville, MD, 6 April through 23 Oct. 2012

CCC\C=C/C=C/C=C/C(=O)OC [Lure #3, Methyl (2E,4E,6Z)-decatrienoate]
adults captured [1]: 999
adults captured (% of total) [1]: 17.9%
nymphs captured [1]: 386
nymphs captured (% of total) [1]: 18.4%
adults captured (% of total) (Arden, WV 2012, Aug2-13): 10.40%
nymphs captured (% of total) (Arden, WV 2012, Aug2-13): 9.5%
adults captured [2]: 7
nymphs captured [2]: 38
adults captured (% of total) (Arden, WV 2012, Aug13-27): 3.10%
nymphs captured (% of total) (Arden, WV 2012, Aug13-27): 10.0%
adults captured [3]: 4
nymphs captured [3]: 51
adults captured (% of total) (Arden, WV 2012, Aug27-Sep10): 1.60%
nymphs captured (% of total) (Arden, WV 2012, Aug27-Sep10): 42.8%
adults captured [4]: 3
nymphs captured [4]: 68
adults captured (% of total) (Arden, WV 2012, July2-17): 0%
nymphs captured (% of total) (Arden, WV 2012, July2-17): 5.0%
adults captured [5]: 0
nymphs captured [5]: 8
adults captured (% of total) (Arden, WV 2012, July17-Aug2): 0%
nymphs captured (% of total) (Arden, WV 2012, July17-Aug2): 22.2%
adults captured [6]: 0
nymphs captured [6]: 8
adults captured (% of total) (Arden, WV 2012, June4-19): 0%
adults captured [7]: 0
nymphs captured [7]: 0
adults captured (% of total) (Arden, WV 2012, June19-July2): 0%
nymphs captured (% of total) (Arden, WV 2012, June19-July2): 0%
adults captured [8]: 0
nymphs captured [8]: 0
adults captured (% of total) (Arden, WV 2012, May 16-23): 0%
adults captured [9]: 0
nymphs captured [9]: 0
adults captured (% of total) (Arden, WV 2012, May23-Jun4): 0%
adults captured [10]: 0
nymphs captured [10]: 0
adults captured (% of total) (Arden, WV 2012, Oct9-23): 28.90%
nymphs captured (% of total) (Arden, WV 2012, Oct9-23): 60.5%
adults captured [11]: 120
nymphs captured [11]: 20
adults captured (% of total) (Arden, WV 2012, Sep10-24): 12.70%
nymphs captured (% of total) (Arden, WV 2012, Sep10-24): 23.9%
adults captured [12]: 333
nymphs captured [12]: 135
adults captured (% of total) (Arden, WV 2012, Sep24-Oct9): 25.20%
nymphs captured (% of total) (Arden, WV 2012, Sep24-Oct9): 25.7%
adults captured [13]: 532
nymphs captured [13]: 58
Season-long total captures of BMSB adults [14]: 999 b
Season-long total captures of BMSB nymphs [14]: 386 b
Season-long captures of BMSB adults, share of TOTAL [15]: 17.9%
Season-long captures of BMSB nymphs, share of TOTAL [15]: 18.4%
adults captured (% of total) (Beltsville, MD 2012, 4-22 May): 2.10%
adults captured [16]: 2
nymphs captured [16]: 0
adults captured (% of total) (Beltsville, MD 2012, 5-19 June): 4.20%
nymphs captured (% of total) (Beltsville, MD 2012, 5-19 June): 25.10%
adults captured [17]: 6
nymphs captured [17]: 63
adults captured (% of total) (Beltsville, MD 2012, 5-23Oct): 17.50%
nymphs captured (% of total) (Beltsville, MD 2012, 5-23Oct): 35.70%
adults captured [18]: 6
nymphs captured [18]: 5
adults captured (% of total) (Beltsville, MD 2012, 6-20 April): 10.20%
adults captured [19]: 6
nymphs captured [19]: 0
adults captured (% of total) [20]: 10.40%
nymphs captured (% of total) [20]: 28.30%
adults captured [21]: 1203
nymphs captured [21]: 1823
adults captured (% of total) (Beltsville, MD 2012, 7-21 Sept): 20.30%
nymphs captured (% of total) (Beltsville, MD 2012, 7-21 Sept): 30.00%
adults captured [22]: 314
nymphs captured [22]: 36
adults captured (% of total) (Beltsville, MD 2012, 10-24 Aug): 4.60%
nymphs captured (% of total) (Beltsville, MD 2012, 10-24 Aug): 14.80%
adults captured [23]: 7
nymphs captured [23]: 212
adults captured (% of total) [24]: 0.00%
nymphs captured (% of total) [24]: 20.30%
adults captured [25]: 0
nymphs captured [25]: 13
adults captured (% of total) [26]: 0.00%
nymphs captured (% of total) [26]: 1.30%
adults captured [27]: 0
nymphs captured [27]: 6
adults captured (% of total) (Beltsville, MD 2012, 20 April-4 May): 21.90%
adults captured [28]: 7
nymphs captured [28]: 0
adults captured (% of total) [29]: 27.90%
nymphs captured (% of total) [29]: 40.50%
adults captured [30]: 440
nymphs captured [30]: 17
adults captured (% of total) (Beltsville, MD 2012, 22 May-5 June): 2.90%
nymphs captured (% of total) (Beltsville, MD 2012, 22May-5June): 38.90%
adults captured (Beltsville, MD 2012, 22 May-5 June, 14-day total, 4 traps/trtmt): 3
nymphs captured (Beltsville, MD 2012, 22May-5June, 14-day total, 4 traps/trtmt): 7
adults captured (% of total) [31]: 22.20%
nymphs captured (% of total) [31]: 41.80%
adults captured [32]: 393
nymphs captured [32]: 1018
adults captured (% of total) [33]: 6.10%
nymphs captured (% of total) [33]: 30.80%
adults captured [34]: 14
nymphs captured [34]: 406
adults captured (% of total) [35]: 8.60%
nymphs captured (% of total) [35]: 14.50%
adults captured [36]: 5
nymphs captured [36]: 40
Season-long total captures of BMSB adults [37]: 1203 b
Season-long total captures of BMSB nymphs [37]: 1823 b
Season-long captures of BMSB adults, share of TOTAL [38]: 20.4%
Season-long captures of BMSB nymphs, share of TOTAL [38]: 28.3%
